Source: patent US20090176835A1, “PHARMACEUTICAL COMPOSITION FOR SUPPRESSION OF THE EXPRESSION OF ATP CITRATE LYASE AND USE THEREOF” (Ajinomoto Co., Inc., priority 2002, published 2009)

Experiments:
[1] = system: rat ACL gene (GenBank ID: J05210); assay: Liver ACL expression analyzed with DNA chips, Experiment 2 (GK rats); type: in vivo
Description: In Experiment 1, methylcellulose or 50 mg/kg of nateglinide suspended in methylcellulose was orally administered to normal Wistar rats fasted overnight. One hour after the administration, the liver was taken from each rat and freezed. The total RNA was extracted with RNeasy kit (Qiagen Co. Ltd). Biotinylated cRNA probe was prepared by a standard method and then it was hybridized to rat genome U34 array (Affymetrix Co. Ltd). The amount of cRNA hybridized to rat ACL gene (GenBank ID: J05210) was analyzed with Microarray Suite 5.0 software (Affymetrix Co. Ltd). Also in Experiment 2, 1 g/kg of glucose, 50 mg/kg of nateglinide or both of glucose and nateglinide were orally administered to Wistar rats and GK rats fasted overnight. One hour after the administration, the liver was taken from each rat and the expression of ACL level was analyzed with DNA chips in the same manner as that in Experiment 1.

[2] = Blood GOT and GPT as indices of liver function in patients with type 2 diabetes, 12 weeks oral nateglinide; type: in vivo, human; conditions: for GOT, change (0 to 12 weeks) / GPT, change (0 to 12 weeks): decrease, p<0.05
Description: Nateglinide was orally administered to patients with type 2 diabetes three times a day in a dose of usually […] before meals for 12 weeks. Blood GOT and GPT concentrations were determined as indices of the liver function in 0 week and 12th week. In analysis 1, the results obtained by the oral administration of nateglinide to 53 patients with type 2 diabetes each having fatty liver for 12 weeks were analyzed. In analysis 2, the results obtained by the oral administration of nateglinide to 16 cases of type-2 diabetes having liver disorders (GOT, GPT≧51 IU/L) were analyzed.

[3] = after 30 days' administration; patients without liver diseases (Drugs R&D 2(2):123 (1999)); cited from earlier work
[4] = cited from earlier work
[5] = Insulin level in GK rat portal vein after nateglinide; type: in vivo; conditions: after administration
[6] = system: rat ACL gene (GenBank ID: J05210); assay: Liver ACL expression analyzed with DNA chips, Experiment 1 (normal Wistar rats); type: in vivo
Description: The effect of nateglinide on the expression of liver ACL was analyzed with DNA chips. In Experiment 1, methylcellulose or 50 mg/kg of nateglinide suspended in methylcellulose was orally administered to normal Wistar rats fasted overnight. One hour after the administration, the liver was taken from each rat and freezed. The total RNA was extracted with RNeasy kit (Qiagen Co. Ltd). Biotinylated cRNA probe was prepared by a standard method and then it was hybridized to rat genome U34 array (Affymetrix Co. Ltd). The amount of cRNA hybridized to rat ACL gene (GenBank ID: J05210) was analyzed with Microarray Suite 5.0 software (Affymetrix Co. Ltd).

[7] = analysis 1: 53 type 2 diabetes patients with fatty liver
[8] = analysis 1: type 2 diabetes patients with fatty liver, 12 weeks
[9] = analysis 2: 16 cases of type-2 diabetes with liver disorders
[10] = analysis 2: type-2 diabetes with liver disorders, 12 weeks

## CC(C)[C@H]1CC[C@H](C(=O)N[C@H](Cc2ccccc2)C(=O)O)CC1 [nateglinide, (−)-N-(trans-4-isopropylcyclohexanecarbonyl)-D-phenylalanine]
[1]; Experiment 2 group 5, GK rats fasted overnight, 50 mg/kg oral with 1 g/kg glucose, liver 1 h after, GK controls 139.6
  Expression level of liver ACL (cRNA hybridized to rat ACL gene), Analysis 1: 66.4
[1]; Experiment 2 group 5, GK rats fasted overnight, 50 mg/kg oral with 1 g/kg glucose, liver 1 h after, GK controls 452.5 / 416.7
  Expression level of liver ACL (cRNA hybridized to rat ACL gene), Analysis 2: 189.9
[1]; GK rats, Experiment 2, groups 3, 4 vs 5
  Elevated liver ACL expression level: significantly suppressed and returned to the normal level
[2]; 5 cases with fatty liver and NASH-like liver troubles (GOT, GPT≧51 IU/L, GPT>GOT), reduced from 138.6±56.0
  GOT value after administration: 83.6±41.5 IU/L
[2]; 5 cases with fatty liver and NASH-like liver troubles (GOT, GPT≧51 IU/L, GPT>GOT), reduced from 242.6±112.8
  GPT value after administration: 57.8±59.2 IU/L
[2]; analysis 1: 53 type 2 diabetes patients with fatty liver, 12 weeks oral, 0 week 58.4 ± 34.4
  GOT, 12th week: 33.8 ± 22.9 IU/L
[2]; analysis 1: 53 type 2 diabetes patients with fatty liver, 12 weeks oral, 0 week 77.2 ± 55.9
  GPT, 12th week: 44.0 ± 29.7 IU/L
[2]; [7]
  GOT, change (0 to 12 weeks): 24.7 ± 12.4 IU/L
  GPT, change (0 to 12 weeks): 33.2 ± 31.0 IU/L
[2]; [8]
  Level of GOT after administration compared with before: statistically significant lowered
  Level of GPT after administration compared with before: statistically significant lowered
[2]; analysis 2: 16 cases of type-2 diabetes with liver disorders (GOT, GPT≧51 IU/L), 0 week 133.3 ± 51.3
  GOT, 12th week: 85.4 ± 40.9 IU/L
[2]; analysis 2: 16 cases of type-2 diabetes with liver disorders (GOT, GPT≧51 IU/L), 0 week 217.3 ± 94.1
  GPT, 12th week: 80.2 ± 53.4 IU/L
[2]; [9]
  GOT, change (0 to 12 weeks): 47.8 ± 37.9 IU/L
  GPT, change (0 to 12 weeks): 137.0 ± 43.4 IU/L
[2]; [10]
  GOT before vs after administration: statistically significant lowering
  GPT before vs after administration: statistically significant lowering
[3]
  Alterations in liver function: no significant alterations
[4]; J. Clin. Pharmacol. 40:634 (2000), Drugs 60(3):607 (2000)
  Effect of hepatic cirrhosis on pharmacokinetics: no significant effect
[4]; subjects with mild hepatic impairment (Am J Health-Syst Pharm 58, 285 (2001))
  Increase of total exposure: 30%
[5]
  Insulin level in portal vein: transient increase
[6]; Wistar rats fasted overnight, 50 mg/kg oral, no glucose, liver 1 h after, methylcellulose control 96.2
  Expression level of liver ACL (cRNA hybridized to rat ACL gene), Analysis 1: 144.4
[6]; Wistar rats fasted overnight, 50 mg/kg oral, no glucose, liver 1 h after, methylcellulose control 459.3
  Expression level of liver ACL (cRNA hybridized to rat ACL gene), Analysis 2: 543.6
[6]; normal Wistar rats
  Suppression of liver ACL mRNA level: no significant suppression
